The target of this assay is CHO-CHOP luciferase reporter, UPR activation, luminescence. The experiment in a line: activators of PERK-eIF2a-CHOP UPR arm, confirmation, CHO-CHOP cells, luciferase luminescence (AID 489024).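 Further: compounds added alone to reporter cells with no tunicamycin stress co-treatment.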

The source made the active and inactive calls.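 How the source made its calls: active means compounds whose mean EC50, the dose giving half the maximal reporter activation, is at or below a set limit; inactive means the rest.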 A value given as a limit tells only on which side of the number the result lay.

A word on the EC50: it is the concentration giving half of the maximal effect. On to `O=C(Oc1oc(-c2ccco2)nc1C=Nc1ccc(Cl)cc1)c1ccco1`, for which the concentration for a half-maximal effect (EC50) is 8.89 µM.
Next, `COc1ccc(NC(=O)C(=O)N/N=C\c2ccc(CNC(=O)C(=O)Nc3ccc(C)c(C)c3)o2)c(OC)c1`: 8.25 µM; `Cc1ccc(Cc2cnc(NC(=O)/C(C#N)=C/c3ccc(-c4cccc([N+](=O)[O-])c4)o3)s2)cc1`: 14.7 µM; `O=C(CCl)Nc1cccc(S(=O)(=O)NC2=NCCCCC2)c1`: 17.8 µM.
Then `Cc1ccc(C(=O)NC(C#N)=C(Cl)Cl)cc1`, with > 80 µM (inactive); and `Oc1ccc(-c2csc(Nc3ccccn3)n2)cc1O`, with 3.7 µM.
For the compound `C=CCSC(=C(C#N)C#N)c1cc2c([nH]1)CCCC2`, the EC50 is > 80 µM (inactive).
As to `Cc1cc(C)cc(NC(=O)/C(C#N)=C/c2cn(CC(=O)NCc3ccco3)c3ccccc23)c1`, the EC50 was 7.54 µM.
As to `O=C(CSc1nc2ccc(Nc3nc(N4CCOCC4)nc(N4CCOCC4)n3)cc2s1)Nc1ccccc1F`, the EC50 was 14.7 µM.
Next, `O=C(NC1CCCC1)C(c1ccc(Cl)cc1)N(Cc1ccc(F)cc1)C(=O)CCl` (configuration not stated): 8.34 µM; `O=C(O)CC1CCC(=C(Cl)Cl)C1` (configuration not stated): > 80 µM (inactive).
Next, `CC(NC(=O)CN(c1cccc(C(F)(F)F)c1)S(=O)(=O)c1ccc(Cl)c([N+](=O)[O-])c1)c1ccccc1` (configuration not stated): 8.07 µM; `Oc1ccc(-c2csc(-c3ccccc3)n2)cc1O`: 5.57 µM; `CC(C)c1ccc(N2C(=O)CC(Sc3nc4ccccc4o3)C2=O)cc1` (configuration not stated): 15.9 µM.
Take `Cc1ccc2oc(Nc3nc(-c4ccccc4)cc(=O)[nH]3)nc2c1`: the EC50 was 7.41 µM.
For `COc1ccc(-c2ccc(-c3nc4c(c(=O)[nH]c(=O)n4Cc4ccccc4)n3C)o2)c([N+](=O)[O-])c1`, the EC50 was > 80 µM (inactive).
For `C=C1C(=O)C=C[C@]2(C)C[C@@H]3OC(=O)[C@](C)(O)[C@H]3C[C@@H]12`, the EC50 is 12.7 µM.
Then `C/C(CCC12CC3CC(CC(C3)C1)C2)=N\NC(N)=S`, with 16.5 µM.
Next, `O=[N+]([O-])c1ccc(Sc2nnnn2-c2ccccc2)nc1`: > 80 µM (inactive); `CCn1c(-c2ccccc2)c(C(=O)CCl)c2ccccc21`: 8.47 µM; `CCc1nnc(NC(=O)c2nc(S(=O)(=O)Cc3ccc(C)cc3)ncc2Cl)s1`: > 80 µM (inactive).
Next, `O=S1(=O)Nc2c(ccc3cccnc23)-c2ccccc21`: 3.42 µM; `COc1cccc(N=Nc2ccc3cccnc3c2O)c1`: 10.2 µM; `CN1CCN(Cc2cc(COCc3ccccc3)c3cccnc3c2O)CC1`: 12.8 µM.
Consider `O=C(CN1CCN(c2ccccc2F)CC1)c1ccc(O)c(O)c1`, for which the EC50 entry is “inactive”.
Then `C=CCN1C(=O)/C(=C/c2ccc3c(c2)CCCN3CCC)C(=O)NC1=S`, with 14 µM; and `CC1(C)CC(=O)C(=Cc2cn(-c3ccccc3)nc2-c2ccccc2)C(=O)C1`, with “inactive”; and `CSc1nnc(NC(=O)c2nc(S(=O)(=O)Cc3cccc(C)c3)ncc2Cl)s1`, with > 80 µM (inactive).
In the case of `Cc1cccc(-n2c(/C=C/c3ccc([N+](=O)[O-])o3)nc3ccccc3c2=O)c1`, the EC50 was 11.7 µM.
For `C=CCNC(=S)N/N=C(\C)c1ccccn1`, the 50% effective concentration (EC50) was 2.5 µM.
Regarding `CC(=O)Nc1ccc(N=Cc2c(O)c(C(=O)Nc3ccccc3)cc3ccccc23)cc1`, the EC50 entry is “inactive”.
`Cc1cccnc1Nc1nc(-c2ccc(O)c(O)c2)cs1`: the 50% effective concentration (EC50) was 3.48 µM.
Then `C/C(CC(C)(C)C1CCCCC1)=N\NC(N)=S`, with 12 µM.
Then `C[C@@H]1C[C@@H]2O[C@H]2/C=C\C=C\C(=O)Cc2c(Cl)c(O)cc(O)c2C(=O)O1`, with 5.32 µM; and `COC(=O)c1cc(=O)n(Cc2ccc3c(c2)OCO3)c(=Nc2ccc(F)c(Cl)c2)s1`, with > 80 µM (inactive).
Then `CCOc1ccc2nc(SC3CC(=O)N(c4ccc(C)cc4)C3=O)sc2c1` (configuration not stated), with > 80 µM (inactive); and `CSC(=S)N/N=C(\C)c1ccccc1`, with 12.3 µM; and `COc1c(Cl)cc(Cl)cc1/C=C/C(=O)c1ccc(NC(=O)c2cccs2)cc1`, with 4.63 µM.
As to `O=C1Nc2ccc(Br)cc2/C1=N/N=C/C1=C(N2CCOCC2)C(=C\c2ccccc2)/CC1`, the EC50 is > 80 µM (inactive).
Then `COc1cc(/C=C/C(=O)c2ccc3c(c2)OCCO3)cc(Br)c1OCC(=O)N(C)C`, with 7 µM; and `Cc1cc(C(=O)c2ccc(C(C)(C)C)cc2)c(NC(=O)CCl)s1`, with 12.4 µM.
Next, `CCc1nnc(NC(=O)CSc2nc(-c3ccccc3)cc(-c3ccc(OC)cc3)c2C#N)s1`: 13 µM; `CC1=CC(C)(C)Nc2ccc(OC(=O)CN3C(=O)C4CCCCC4C3=O)cc21` (configuration not stated): 8.07 µM; `Nc1nnnn1/N=C/C(Br)=C/c1ccccc1`: 2.22 µM.
Then `COc1cccc2sc(Nc3nc(C)c(C(C)=O)s3)nc12`, with 14.7 µM.
Regarding `CCSC1(SCC)N=C(N)C2(C#N)C(c3ccc(F)cc3)C12C#N` (configuration not stated), the EC50 was 11 µM.
In the case of `CN(c1ccccc1)S(=O)(=O)c1cccc(C(=O)NCCc2ccc(O)c(O)c2)c1`, the EC50 is 7.53 µM.
Then `O=S(=O)(c1ccc(Cl)cc1)c1snnc1-c1ccccc1`, with 11.1 µM; and `CC1=NOC(=O)/C1=C\c1ccc(-c2cccc(Cl)c2)o1`, with 13.1 µM; and `COc1cc(/C=C(/C#N)c2nc3ccccc3[nH]2)ccc1OCC(=O)Nc1ccccc1C`, with 3.65 µM.
Regarding `CCOc1cc(/C=C2\CN(CC)C/C(=C\c3ccc(O)c(OCC)c3)C2=O)ccc1O`, the EC50 is 6.25 µM.
`COc1ccc(OC)c(/C=C/C(=O)N2C(=O)c3cccc(N)c3C2=O)c1`: the EC50 result was “inactive”.
Next, `c1ccc(CSC2=NNC(c3ccccn3)S2)cc1` (configuration not stated): 4.29 µM; `O=C(Nc1ccc(NC(=O)c2sc3ccccc3c2Cl)cc1Cl)c1ccco1`: “inactive”.
Then `O=C(/C(=C/c1cccc(Cl)c1)c1nc2ccccc2[nH]1)c1ccccc1`, with 6.66 µM; and `CCOc1ccc2c(c1)C(=NNC(=O)c1ccncc1)c1cc(OCC)ccc1-2`, with 8.63 µM.
Then `Cc1cc(C(=O)CCl)c(C)n1-c1cccc([N+](=O)[O-])c1`, with 8.64 µM; and `O=C(N/N=C/c1ccccn1)c1cc(-c2ccc(Br)cc2)nc2ccccc12`, with 2.4 µM.
As to `Cc1nc([N+](=O)[O-])c(Br)n1CC(=O)c1ccc(Cl)cc1`, the EC50 is > 80 µM (inactive).
Next, `O=C(c1cccs1)N(C(=O)c1cccs1)c1ccc(Br)cn1`: 13.9 µM; `Cc1cc(NC(=O)c2cc(-c3ccccn3)nc3ccc(Br)cc23)no1`: > 80 µM (inactive).
Next, `Oc1ccc(/C=N/Nc2ccnc3cc(Cl)ccc23)cc1O`: 6.62 µM; `CCOC(=O)/C(=C\c1ccccc1)C(=O)c1cc(C(C)=O)c(Nc2ccccc2)s1`: 6.37 µM; `COC(=O)c1ccc(C(=O)OC)c(NC(=O)CSc2cccc[n+]2[O-])c1`: “inactive”.
Next, `CCOc1ccccc1N=Cc1c(O)c2ccccc2oc1=O`: 7.86 µM; `CCCOc1ccc(N2C(=O)CC(N(O)c3ccccc3)C2=O)cc1` (configuration not stated): 7.23 µM; `Cc1ccccc1NC(=O)c1ccc(N/N=C/c2ccccc2O)c([N+](=O)[O-])c1`: 9.06 µM.
In the case of `Cc1cc(SCC(=O)N/N=C/c2ccc(O)c(O)c2)nc2ccccc12`, the EC50 is 18.3 µM.
Next, `CCCC[C@@H](C)C[C@@H](C)C(=O)N(C)[C@@H](CC(C)C)C(=O)N[C@H](C(=O)N(C)[C@H](C(=O)N1C[C@@H](O)C[C@H]1C(=O)N1C(=O)C=C[C@@H]1C)C(C)C)C(C)OC(C)=O` (some centres not stated): 10.4 µM; `Cc1ccc(NC(=O)c2nc(S(=O)(=O)Cc3ccccc3C)ncc2Cl)cc1C`: 8.51 µM; `Cc1ccc(N2C(=O)NC(=O)/C(=C/C=C/c3ccco3)C2=O)cc1`: 11.5 µM.
For the compound `Oc1ccc(/C=N/N(c2ccccc2)c2ccccc2)cc1O`, the EC50 entry was “inactive”.
Take `Cc1ccc(NC(=O)COc2ccc(/C=C3/SC(=Nc4ccccc4)N(Cc4cccnc4)C3=O)cc2)cc1`: the EC50 entry is “inactive”.
As to `O=c1[nH]c(=S)n(C2CC2)c(O)c1C=Nc1cccc(C(F)(F)F)c1`, the EC50 was > 80 µM (inactive).
As to `CCOc1cc(/C=C2/C(=O)ON=C2C)ccc1OCc1ccccc1F`, the EC50 was 15.9 µM.
Next, `CC(=O)c1cccc(NC(=O)CSc2ncc(C(=O)Nc3ccccc3)c(=O)n2C)c1`: 7.28 µM; `C/C(=N\NC(=O)c1ccccc1OCc1ccc(F)cc1)c1ccccn1`: 4.89 µM.
Regarding `CCc1cc2c(=O)c(-c3cnn(-c4ccccc4)c3)c(C)oc2cc1OCC(=O)Nc1cccc(C)c1`, the half-maximal effective concentration (EC50) was 15.1 µM.
Next, `C/C(=N\NC(=O)c1cccc2ccccc12)c1ccccn1`: 3.22 µM; `CC1=C(/C=C/C(C)=C/C=C/C(C)=C/C(=O)Nc2ccc(O)cc2)C(C)(C)CCC1`: 14.3 µM.
Then `C/C(=C\c1ccc(N(C)C)cc1)[N+](=O)[O-]`, with 9.76 µM; and `O=C(/C=C\c1ccccc1OC(=O)c1ccccc1F)c1cc2ccccc2o1`, with 14 µM.
Consider `S=C1SCN(CCN2CCOCC2)CN1Cc1ccccc1`, for which the EC50 was 10.8 µM.
Next, `COc1ccc(C2=CC(=O)N(Nc3ccccc3)C2=O)cc1`: 13.5 µM; `O=C(N/N=C/c1ccccn1)c1ccc(Cl)c(Cl)c1`: 2.93 µM.
For the compound `Cn1nnnc1Sc1ncnc2scc(-c3ccc([N+](=O)[O-])cc3)c12`, the EC50 was 12.3 µM.
Next, `COc1ccccc1NC(=O)c1cnc(SCC(=O)NCC2CCCO2)n(C)c1=O` (configuration not stated): 14.4 µM; `CCN(CC)S(=O)(=O)c1ccc(N/N=C(\C)c2ccc3c(c2)OCO3)c([N+](=O)[O-])c1`: “inactive”; `COc1ccc(-c2cc(C(F)F)n3ncc(C(=O)n4ccnc4C)c3n2)cc1`: 13.3 µM.
On to `COc1ccc(NC(=O)c2sc3nc(N4CCOCC4)c4c(c3c2N)CC(C)(C)OC4)c(OC)c1`, for which the EC50 was > 80 µM (inactive).
Then `Cc1ccc(S(=O)(=O)N(C(=O)c2ccncc2)c2ccc(OC(=O)c3ccncc3)c3ccccc23)c(C)c1`, with 16.7 µM.
As to `CCCN1C/C(=C/c2ccc3c(c2)OCO3)C(=O)/C(=C/c2ccc3c(c2)OCO3)C1`, the concentration giving a half-maximal response (EC50) is 7.78 µM.

The values are drawn from PubChem BioAssay AID489024 (Sanford-Burnham Center for Chemical Genomics, 2010).
